Reference: ChEMBL document CHEMBL5344452, “TYK2 Inhibitors for Treating Autoimmune and Inflammatory Diseases” (ACS Med Chem Lett, 2024)
pIC50: −log10 of the molar value.

target: Non-receptor tyrosine-protein kinase TYK2 (Homo sapiens, UniProt P29597); assay: Inhibition of human TYK2 JH2 domain (575 to 876 residues) incubated for 60 mins by TR-FRET assay
Sequence (P29597 whole entry, the tested form may be a part): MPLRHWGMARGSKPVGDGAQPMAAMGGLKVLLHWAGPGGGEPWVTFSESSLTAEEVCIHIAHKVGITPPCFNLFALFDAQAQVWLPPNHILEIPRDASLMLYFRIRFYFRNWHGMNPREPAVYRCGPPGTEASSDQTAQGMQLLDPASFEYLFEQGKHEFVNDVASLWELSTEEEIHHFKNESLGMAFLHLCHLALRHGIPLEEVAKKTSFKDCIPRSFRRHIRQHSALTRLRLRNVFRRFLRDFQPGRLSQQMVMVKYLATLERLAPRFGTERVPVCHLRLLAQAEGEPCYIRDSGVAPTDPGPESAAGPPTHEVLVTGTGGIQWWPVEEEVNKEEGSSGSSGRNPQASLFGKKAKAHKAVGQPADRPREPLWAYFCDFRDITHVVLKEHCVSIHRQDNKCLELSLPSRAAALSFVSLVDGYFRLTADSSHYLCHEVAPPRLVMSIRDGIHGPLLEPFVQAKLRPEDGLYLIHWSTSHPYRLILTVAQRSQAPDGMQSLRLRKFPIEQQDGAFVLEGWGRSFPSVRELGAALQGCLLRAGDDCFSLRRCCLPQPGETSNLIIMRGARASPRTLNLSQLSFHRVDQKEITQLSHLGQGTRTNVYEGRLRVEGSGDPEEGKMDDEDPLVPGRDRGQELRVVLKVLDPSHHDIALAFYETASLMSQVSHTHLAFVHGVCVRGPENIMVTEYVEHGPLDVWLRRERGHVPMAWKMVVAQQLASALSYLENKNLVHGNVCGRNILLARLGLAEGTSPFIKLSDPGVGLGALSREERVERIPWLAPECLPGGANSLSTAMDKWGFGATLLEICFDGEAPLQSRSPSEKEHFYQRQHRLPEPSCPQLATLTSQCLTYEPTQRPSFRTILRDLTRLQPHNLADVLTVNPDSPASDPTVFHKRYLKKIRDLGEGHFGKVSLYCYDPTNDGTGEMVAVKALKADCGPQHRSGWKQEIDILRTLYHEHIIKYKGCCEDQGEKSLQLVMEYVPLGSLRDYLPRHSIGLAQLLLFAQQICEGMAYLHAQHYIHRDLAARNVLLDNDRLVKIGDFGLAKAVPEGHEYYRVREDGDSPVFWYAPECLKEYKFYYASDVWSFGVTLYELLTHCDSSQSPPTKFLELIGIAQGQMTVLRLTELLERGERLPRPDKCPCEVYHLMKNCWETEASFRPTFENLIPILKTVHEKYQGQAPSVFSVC

pIC50, ≥ 8.00:
CC(=O)Nc1cc2c(cn1)c(-c1ccn(C)n1)nn2-c1ccnc(C(C)(F)F)n1
CC(=O)Nc1cc2c(cn1)c(C)nn2-c1nc(C2CCOC2)c(C)s1 (stereo unspecified)
CC(=O)Nc1cc2c(cn1)c(N1CC3(COC3)C1)nn2-c1nccc(C(C)(F)F)n1
COC1CC(Oc2cc(C3CCOC3)nc(-n3nc(C4CC4)c4cnc(NC(C)=O)cc43)c2)C1 (stereo unspecified)
CC(=O)Nc1cc2c(cn1)c(-c1ccc(C)nc1)nn2-c1ccnc(C(C)(F)F)n1
CC(=O)Nc1cc2c(cn1)c(C)nn2-c1cccc(C2CCOC2)n1 (stereo unspecified)
